Legend:
DnaK (H. pylori HSP70) = target: T1, DnaK (H. pylori HSP70) (Helicobacter pylori, UniProt P55994); experiment: SPR (BIAcore […]), DnaK amine-coupled to CM5 chip; type: binding
T1 construct: full length cloned from genomic DNA of ATCC43504 in pCold I (vector His tag, cleavage not mentioned), E. coli BL21, Ni-NTA
T1 sequence (P55994 2-620): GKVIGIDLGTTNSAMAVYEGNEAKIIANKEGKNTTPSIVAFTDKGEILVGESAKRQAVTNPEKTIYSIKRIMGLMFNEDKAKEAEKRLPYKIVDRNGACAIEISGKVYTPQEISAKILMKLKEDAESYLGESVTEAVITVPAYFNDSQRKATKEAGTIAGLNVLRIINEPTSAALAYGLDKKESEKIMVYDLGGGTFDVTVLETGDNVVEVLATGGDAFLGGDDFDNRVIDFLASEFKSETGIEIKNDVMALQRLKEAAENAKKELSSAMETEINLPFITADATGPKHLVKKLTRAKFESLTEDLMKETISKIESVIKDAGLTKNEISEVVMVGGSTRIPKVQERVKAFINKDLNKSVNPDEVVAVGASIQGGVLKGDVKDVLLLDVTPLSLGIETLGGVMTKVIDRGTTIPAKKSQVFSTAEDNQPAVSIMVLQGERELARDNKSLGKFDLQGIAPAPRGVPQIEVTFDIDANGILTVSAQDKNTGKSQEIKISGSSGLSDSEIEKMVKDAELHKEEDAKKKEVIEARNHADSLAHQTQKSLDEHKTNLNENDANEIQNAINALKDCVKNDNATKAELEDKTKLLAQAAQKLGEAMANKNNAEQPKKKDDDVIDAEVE

HSP70 (human HSP70) [1] = target: T2, HSP70 (human HSP70) (Homo sapiens, UniProt P0DMV8); experiment: SPR (BIAcore […]), HSP70 amine-coupled to CM5 chip; type: binding
T2 construct: gene HSPA1A; full-length cDNA (from R. Morimoto) in pCold I (vector His tag, cleavage not mentioned); forward primer encodes N-terminus MAKAAAV

HSP70 (human HSP70) [2] = target: T2, HSP70 (human HSP70); experiment: citrate synthase thermal aggregation (light scattering, […] nm); type: biochemical; conditions: 50 mM HEPES pH 7.4, 50 C; 50 μM HSP70, 0.25 μM citrate synthase, 5 mM GGA

T2 sequence (P0DMV8 whole entry): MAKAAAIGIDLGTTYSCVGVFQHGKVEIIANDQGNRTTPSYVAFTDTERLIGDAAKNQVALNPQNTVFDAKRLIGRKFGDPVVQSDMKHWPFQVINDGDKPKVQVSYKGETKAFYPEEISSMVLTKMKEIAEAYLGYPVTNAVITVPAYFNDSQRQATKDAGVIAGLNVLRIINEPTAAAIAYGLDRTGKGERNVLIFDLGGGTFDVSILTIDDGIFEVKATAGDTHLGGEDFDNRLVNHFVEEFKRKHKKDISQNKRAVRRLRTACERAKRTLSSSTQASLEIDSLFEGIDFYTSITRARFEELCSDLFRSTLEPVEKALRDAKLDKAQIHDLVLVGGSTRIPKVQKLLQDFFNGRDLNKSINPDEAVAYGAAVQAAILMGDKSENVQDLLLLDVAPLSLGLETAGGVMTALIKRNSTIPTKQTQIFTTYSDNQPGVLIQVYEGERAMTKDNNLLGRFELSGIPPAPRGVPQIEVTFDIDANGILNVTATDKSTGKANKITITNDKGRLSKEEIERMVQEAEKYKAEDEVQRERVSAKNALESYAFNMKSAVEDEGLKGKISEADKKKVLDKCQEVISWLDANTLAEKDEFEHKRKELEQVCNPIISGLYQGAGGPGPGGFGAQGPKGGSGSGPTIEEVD

## CC(=O)CC/C=C(\C)CC/C=C(\C)CC/C=C(\C)CCC=C(C)C [GGA, 6,10,14,18-tetramethyl-5,9,13,17-nonadecatetraen-2-one]
DnaK (H. pylori HSP70)
  Kd: 75.5 nM
HSP70 (human HSP70) [1]
  Kd: 2000 nM
HSP70 (human HSP70) [2]
  % reduction of chaperone activity at 5 mM: 15%

Source: publication PMC4561889, “Geranylgeranylacetone selectively binds to the HSP70 of Helicobacter pylori and alters its coccoid morphology” (Scientific Reports, 2015)
